{
  "source": "the OligoGym collection",
  "note": "HELM strings list units from the 5' end as sugar, base in round brackets, then linkage (d deoxyribose, r ribose, m 2'-O-methyl, p phosphodiester). Strings are as the collection lists them; they lack the last nucleoside at the 3' end of the tested compound. [moe] = 2'-O-(2-methoxyethyl) (MOE); [sp] = phosphorothioate linkage; [m5C] = 5-methylcytosine",
  "data": [
    {"biological_target": "ATXN2", "assay": "mouse, dose not given", "conditions": "ASO", "units": {"3 h FOB score": "score 0-7"}, "values": [
      {"substance": "RNA1{[moe](G)[sp].[moe](T)p.[moe](A)p.[moe]([m5C])p.[moe](T)p.d(T)[sp].d(T)[sp].d(T)[sp].d([m5C])[sp].d(T)[sp].d([m5C])[sp].d(A)[sp].d(T)[sp].d(G)[sp].d(T)[sp].[moe](G)p.[moe]([m5C])p.[moe](G)[sp].[moe](G)}$$$$ (last 3' nucleoside missing)", "3 h FOB score": 1},
      {"substance": "RNA1{[moe](T)[sp].[moe](G)p.[moe]([m5C])p.[moe](T)p.[moe]([m5C])p.d(T)[sp].d([m5C])[sp].d(T)[sp].d(T)[sp].d(T)[sp].d(G)[sp].d([m5C])[sp].d(G)[sp].d([m5C])[sp].d([m5C])[sp].[moe](T)p.[moe](G)p.[moe](T)[sp].[moe](G)}$$$$ (last 3' nucleoside missing)", "3 h FOB score": 5},
      {"substance": "RNA1{[moe](A)[sp].[moe]([m5C])p.[moe](T)p.[moe](T)p.d([m5C])[sp].d(T)[sp].d([m5C])[sp].d(T)[sp].d(A)[sp].d(T)[sp].d(T)[sp].d(T)[sp].d([m5C])[sp].d(T)[sp].[moe](T)p.[moe](T)p.[moe](G)p.[moe](T)[sp].[moe]([m5C])}$$$$ (last 3' nucleoside missing)", "3 h FOB score": 0},
      {"substance": "RNA1{[moe](A)[sp].[moe](G)p.[moe](G)p.[moe]([m5C])p.[moe](A)p.d(T)[sp].d(A)[sp].d(A)[sp].d(A)[sp].d(T)[sp].d(T)[sp].d(T)[sp].d([m5C])[sp].d(A)[sp].d(T)[sp].[moe]([m5C])p.[moe](T)p.[moe](T)[sp].[moe](A)}$$$$ (last 3' nucleoside missing)", "3 h FOB score": 0},
      {"substance": "RNA1{[moe](G)[sp].[moe](T)[sp].[moe](G)[sp].[moe](G)[sp].[moe](G)[sp].d(A)[sp].d(T)[sp].d(A)[sp].d([m5C])[sp].d(A)[sp].d(A)[sp].d(A)[sp].d(T)[sp].d(T)[sp].d([m5C])[sp].[moe](T)[sp].[moe](A)[sp].[moe](G)[sp].[moe](G)}$$$$ (last 3' nucleoside missing)", "3 h FOB score": 7},
      {"substance": "RNA1{[moe]([m5C])[sp].[moe](T)p.[moe]([m5C])p.[moe](T)p.d([m5C])[sp].d([m5C])[sp].d(A)[sp].d(T)[sp].d(T)[sp].d(A)[sp].d(T)[sp].d(T)[sp].d(T)[sp].d([m5C])[sp].[moe](T)p.[moe](T)p.[moe]([m5C])p.[moe](A)[sp].[moe]([m5C])}$$$$ (last 3' nucleoside missing)", "3 h FOB score": 3},
      {"substance": "RNA1{[moe]([m5C])[sp].[moe]([m5C])p.[moe](A)p.[moe](T)p.[moe](A)p.d(A)[sp].d(T)[sp].d([m5C])[sp].d(T)[sp].d([m5C])[sp].d(A)[sp].d(T)[sp].d(T)[sp].d([m5C])[sp].d(T)[sp].[moe]([m5C])p.[moe](A)p.[moe](T)[sp].[moe](A)}$$$$ (last 3' nucleoside missing)", "3 h FOB score": 2.25},
      {"substance": "RNA1{[moe](T)[sp].[moe]([m5C])p.[moe]([m5C])p.[moe](A)p.[moe](T)p.d(T)[sp].d(A)[sp].d(T)[sp].d(T)[sp].d(T)[sp].d([m5C])[sp].d(T)[sp].d(T)[sp].d([m5C])[sp].d(A)[sp].[moe]([m5C])p.[moe](G)p.[moe](T)[sp].[moe](T)}$$$$ (last 3' nucleoside missing)", "3 h FOB score": 1},
      {"substance": "RNA1{[moe](T)[sp].[moe](T)p.[moe](T)p.[moe](T)p.[moe]([m5C])p.d(T)[sp].d([m5C])[sp].d(A)[sp].d(T)[sp].d(G)[sp].d(T)[sp].d(G)[sp].d([m5C])[sp].d(G)[sp].d(G)[sp].[moe]([m5C])p.[moe](A)p.[moe](T)[sp].[moe]([m5C])}$$$$ (last 3' nucleoside missing)", "3 h FOB score": 5},
      {"substance": "RNA1{[moe](G)[sp].[moe](T)p.[moe](A)p.[moe]([m5C])p.[moe](A)p.d(T)[sp].d(T)[sp].d(T)[sp].d(T)[sp].d(A)[sp].d(A)[sp].d([m5C])[sp].d([m5C])[sp].d([m5C])[sp].d(T)[sp].[moe](T)p.[moe](T)p.[moe](G)[sp].[moe](A)}$$$$ (last 3' nucleoside missing)", "3 h FOB score": 2.5},
      {"substance": "RNA1{[moe](A)[sp].[moe]([m5C])p.[moe](T)p.[moe](G)p.[moe](G)p.d(A)[sp].d(T)[sp].d(T)[sp].d([m5C])[sp].d(T)[sp].d(G)[sp].d(T)[sp].d(A)[sp].d([m5C])[sp].d(T)[sp].[moe](T)p.[moe](T)p.[moe](T)[sp].[moe]([m5C])}$$$$ (last 3' nucleoside missing)", "3 h FOB score": 2},
      {"substance": "RNA1{[moe](G)[sp].[moe](T)p.[moe](G)p.[moe](G)p.[moe](T)p.d(G)[sp].d(G)[sp].d(T)[sp].d(G)[sp].d(T)[sp].d(G)[sp].d([m5C])[sp].d(G)[sp].d([m5C])[sp].d(A)[sp].[moe](T)p.[moe](G)p.[moe](T)[sp].[moe](A)}$$$$ (last 3' nucleoside missing)", "3 h FOB score": 7},
      {"substance": "RNA1{[moe](T)[sp].[moe](T)p.[moe](A)p.[moe](A)p.[moe]([m5C])p.d(A)[sp].d([m5C])[sp].d(T)[sp].d(T)[sp].d(T)[sp].d(A)[sp].d([m5C])[sp].d(T)[sp].d([m5C])[sp].d(A)[sp].[moe]([m5C])p.[moe](T)p.[moe](G)[sp].[moe]([m5C])}$$$$ (last 3' nucleoside missing)", "3 h FOB score": 4.5},
      {"substance": "RNA1{[moe](T)[sp].[moe](T)p.[moe](A)p.[moe]([m5C])p.[moe](T)p.d(G)[sp].d(T)[sp].d(T)[sp].d(T)[sp].d([m5C])[sp].d(G)[sp].d(A)[sp].d([m5C])[sp].d([m5C])[sp].d(T)[sp].[moe]([m5C])p.[moe](T)p.[moe](G)[sp].[moe](A)}$$$$ (last 3' nucleoside missing)", "3 h FOB score": 4.5},
      {"substance": "RNA1{[moe]([m5C])[sp].[moe]([m5C])p.[moe]([m5C])p.[moe](A)p.[moe](A)p.d(A)[sp].d(G)[sp].d(G)[sp].d(G)[sp].d(T)[sp].d(T)[sp].d(A)[sp].d(A)[sp].d(T)[sp].d(T)[sp].[moe](A)p.[moe](G)p.[moe](G)[sp].[moe](A)}$$$$ (last 3' nucleoside missing)", "3 h FOB score": 1},
      {"substance": "RNA1{[moe]([m5C])[sp].[moe](G)p.[moe](T)p.[moe](A)p.[moe](T)p.d(G)[sp].d(T)[sp].d(T)[sp].d(T)[sp].d(G)[sp].d(T)[sp].d([m5C])[sp].d(T)[sp].d(G)[sp].d(T)[sp].[moe]([m5C])p.[moe](T)p.[moe](T)[sp].[moe](A)}$$$$ (last 3' nucleoside missing)", "3 h FOB score": 6.25},
      {"substance": "RNA1{[moe](A)[sp].[moe](A)p.[moe]([m5C])p.[moe](T)p.[moe](G)p.d(G)[sp].d(A)[sp].d(T)[sp].d(T)[sp].d([m5C])[sp].d(T)[sp].d(G)[sp].d(T)[sp].d(A)[sp].d([m5C])[sp].[moe](T)p.[moe](T)p.[moe](T)[sp].[moe](T)}$$$$ (last 3' nucleoside missing)", "3 h FOB score": 4.75},
      {"substance": "RNA1{[moe](A)[sp].[moe](G)p.[moe](T)p.[moe]([m5C])p.[moe](T)p.d(T)[sp].d(G)[sp].d(T)[sp].d(T)[sp].d([m5C])[sp].d(A)[sp].d(G)[sp].d(T)[sp].d(G)[sp].d(T)[sp].[moe]([m5C])p.[moe]([m5C])p.[moe](T)[sp].[moe](T)}$$$$ (last 3' nucleoside missing)", "3 h FOB score": 5},
      {"substance": "RNA1{[moe](G)[sp].[moe](T)p.[moe](A)p.[moe](T)p.[moe](G)p.d(T)[sp].d(T)[sp].d(T)[sp].d(G)[sp].d(T)[sp].d([m5C])[sp].d(T)[sp].d(G)[sp].d(T)[sp].d([m5C])[sp].[moe](T)p.[moe](T)p.[moe](A)[sp].[moe](T)}$$$$ (last 3' nucleoside missing)", "3 h FOB score": 6},
      {"substance": "RNA1{[moe](T)[sp].[moe]([m5C])p.[moe](T)p.[moe](A)p.[moe](T)[sp].d(T)[sp].d(T)[sp].d([m5C])[sp].d(T)[sp].d(T)[sp].d(T)[sp].d(G)[sp].d(T)[sp].[moe]([m5C])p.[moe]([m5C])p.[moe](A)[sp].[moe](G)}$$$$ (last 3' nucleoside missing)", "3 h FOB score": 5},
      {"substance": "RNA1{[moe](T)[sp].[moe](A)p.[moe](T)p.[moe]([m5C])p.[moe](A)p.d(T)[sp].d([m5C])[sp].d(A)[sp].d(T)[sp].d(T)[sp].d(T)[sp].d(T)[sp].d([m5C])[sp].d([m5C])[sp].d(A)[sp].[moe](G)p.[moe](G)p.[moe](G)[sp].[moe]([m5C])}$$$$ (last 3' nucleoside missing)", "3 h FOB score": 4.75},
      {"substance": "RNA1{[moe](A)[sp].[moe]([m5C])p.[moe](T)p.[moe](G)p.[moe](T)p.d(T)[sp].d(T)[sp].d([m5C])[sp].d(G)[sp].d(A)[sp].d([m5C])[sp].d([m5C])[sp].d(T)[sp].d([m5C])[sp].d(T)[sp].[moe](G)p.[moe](A)p.[moe](A)[sp].[moe](A)}$$$$ (last 3' nucleoside missing)", "3 h FOB score": 4},
      {"substance": "RNA1{[moe](G)[sp].[moe](T)p.[moe](G)p.[moe](A)p.[moe](T)p.[moe](G)p.d(T)[sp].d(T)[sp].d(T)[sp].d([m5C])[sp].d(A)[sp].d(T)[sp].d(T)[sp].d(G)[sp].d(G)[sp].d(G)[sp].[moe](T)p.[moe](T)[sp].[moe](T)}$$$$ (last 3' nucleoside missing)", "3 h FOB score": 4},
      {"substance": "RNA1{[moe]([m5C])[sp].[moe]([m5C])p.[moe](A)p.[moe](G)p.[moe](A)p.d(A)[sp].d(A)[sp].d(T)[sp].d([m5C])[sp].d(T)[sp].d(G)[sp].d(T)[sp].d(A)[sp].d(A)[sp].d(A)[sp].[moe](T)p.[moe](T)p.[moe]([m5C])[sp].[moe](T)}$$$$ (last 3' nucleoside missing)", "3 h FOB score": 3},
      {"substance": "RNA1{[moe](G)[sp].[moe](T)p.[moe](T)p.[moe]([m5C])p.[moe](A)p.d(T)[sp].d([m5C])[sp].d(T)[sp].d(T)[sp].d(T)[sp].d(T)[sp].d([m5C])[sp].d([m5C])[sp].d(T)[sp].d(T)[sp].[moe]([m5C])p.[moe](A)p.[moe](G)[sp].[moe](A)}$$$$ (last 3' nucleoside missing)", "3 h FOB score": 0},
      {"substance": "RNA1{[moe](T)[sp].[moe]([m5C])p.[moe](G)p.[moe](T)p.[moe](A)p.d(T)[sp].d(G)[sp].d(T)[sp].d(T)[sp].d(T)[sp].d(G)[sp].d(T)[sp].d([m5C])[sp].d(T)[sp].d(G)[sp].[moe](T)p.[moe]([m5C])p.[moe](T)[sp].[moe](T)}$$$$ (last 3' nucleoside missing)", "3 h FOB score": 6.25}
    ]}
  ]
}
